Measurements as given in patent US20180251431A1 (VERTEX PHARMACEUTICALS INCORPORATED, priority 2016, published 2018).
Read-outs that look alike come from different tables or passages of the source.

Key:
ABCD1 KO mice = assay: Thermal pain sensitivity (Plantar test, Hargreaves apparatus) in ABCD1 KO mice; assay type: in vivo, mouse; details: male ABCD1 KO mice
Procedure: ABCD1 KO mice were used as a functional model of AMN. ABCD1 KO mice display a progressive loss of sensitivity to painful thermal stimulus similar to symptoms observed in AMN patients such as decreased sensitivity to touch. To determine the effect of Compound 87 on thermal sensitivity, Compound 87 was dosed PO QD either prophylactically or therapeutically to determine whether ABCD1 KO mice have different latency thresholds for the Plantar test (Hargreaves apparatus) response compared to wild-type (WT) mice. For the prophylactic study, mice were tested beginning at 10 months of age (before the loss of pain sensitivity) using doses of either 5 or 20 mg/kg. For the therapeutic study, mice were tested beginning at 18 months of age, after there was already a significant loss of pain sensitivity, using doses of either 32 or 64 mg/kg. […] The Plantar test (using a Hargreaves apparatus) was used and measured the latency to respond to a thermal stimulus using the following protocol. An individual mouse was placed into an individual compartment with a glass floor for about 10-15 minutes until they were settled. Each individual mouse was given three trials with an infrared source on each hind paw (alternated hind paws each time, and waited 5 minutes between each trial). […] When a response was observed (paw withdrawal), the key/button was released and the latency to respond was recorded (in seconds).

[1] = Blood exposure (AUC) in the 28-day oral dosing study in mice; assay type: in vivo; details: ABCD1 knockout (KO), mouse, whole blood (dried blood spots), read-out: Blood area under the concentration time-curve (AUC)
[2] = Metabolic intrinsic clearance in dog hepatocytes; assay type: in vitro ADME; details: beagle, cryopreserved hepatocytes in suspension, pH 7.5, 0.5 million cells/mL, incubation for 4 hours
Procedure: (§1) The metabolic intrinsic clearance (CLint) of Compound 87 was determined in human, monkey, dog, rat, and mouse hepatocytes. Cryopreserved human hepatocytes (Lot Hue50c), monkey hepatocytes (cynomolgus; Lot Cy328), dog hepatocytes (beagle, Lot Db235), rat hepatocytes (Sprague Dawley; NNH), and mouse hepatocytes (CD-1; Lot Mc522) were obtained from ThermoFisher (Paisley, UK). In separate experiments, compound 87 (1 μM) was incubated with hepatocytes from each species (0.5 million cells/mL, suspension) in Dulbecco's Modified Eagle's Medium (DMEM) supplemented with 4-(2-Hydroxyethyl)piperazine-1-ethanesulfonic acid (HEPES, 9 mM) and fructose (2.2 mM) (pH 7.5). Samples were quenched with acetonitrile and analyzed by LC-MS/MS. The mean CLint for Compound 87 in human, monkey, dog, rat, and mouse hepatocytes after incubation for 4 hours was determined to be ≤2.5, ≤2.5, 7.2, 23.6 and 10.7 μL/min/million cells. Based on these date, Compound 87 was low to moderately metabolized in hepatocytes in mouse, rat, dog, monkey, and human, and the rank order of stability at […] was approximately human>monkey>dog>mouse>rat. […] The metabolic stability of Compound 87 was not expected.

[3] = Metabolic intrinsic clearance in mouse hepatocytes; assay type: in vitro ADME, CD-1 mouse; details: CD-1, cryopreserved hepatocytes in suspension, pH 7.5, 0.5 million cells/mL, incubation for 4 hours
Procedure: as §1

O=C(Nc1ccn(-c2ccnc(F)c2)n1)C1(c2ccccc2F)CC1 [Compound 87, 1-(2-fluorophenyl)-N-[1-(2-fluoro-4-pyridyl)pyrazol-3-yl]cyclopropanecarboxamide]
thermal pain sensitivity (response latency, Plantar test), prophylactic treatment (ABCD1 KO mice; 5 or 20 mg/kg PO QD, dosing initiated at 10 months of age, 6 month period): reduced the loss of thermal pain sensitivity | thermal pain sensitivity (response latency, Plantar test), therapeutic treatment (ABCD1 KO mice; 32 or 64 mg/kg PO QD, dosing initiated at 18 months of age): reversed the loss of thermal pain sensitivity | AUC ([1]; 4 mg/kg PO QD): 1950 ng·h/mL | AUC ([1]; 8 mg/kg PO QD): 3490 ng·h/mL | hepatocyte CLint at 1 μM [2]: 7.2 µL/min/1e6 cells | hepatocyte CLint at 1 μM [3]: 10.7 µL/min/1e6 cells
